Assay results published in patent US20250228835A1, “PYRIDINYLOXYPYRIDINES AND RELATED COMPOUNDS AND THEIR USE IN TREATING MEDICAL CONDITIONS” (Rectify Pharmaceuticals, Inc., priority 2024, published 2025).

Columns and labels:
Assay type in all cases: cell-based
ABCC6 WT = target: T1, ABCC6 WT (Homo sapiens, UniProt O95255); test: ABCC6 WT assay: HiBit protein expression; settings: HEK-293 cells transiently expressing HiBit-tagged ABCC6 WT; 24 h treatment; top concentration 20 μM; read-out: ABCC6 WT EC50, Emax
T1 construct: expressed in transfected cells; host or cells: HEK-293 (transient, Lipofectamine 2000)
Procedure, shortened: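 HEK-293 cells transiently transfected with HiBit-tagged human ABCC6 WT cDNA, seeded 24 h post-transfection, treated 24 h at 37° C with ten 2-fold doses (top 20 μM final, 0.15% DMSO). HiBit lytic luminescence reports protein expression; Emax and EC50 derived.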

ABCB4 WT = target: T2, ABCB4 WT (Homo sapiens, UniProt P21439); test: ABCB4 WT assay: HiBit protein expression; settings: HEK-293 cells stably expressing HiBit-tagged ABCB4 WT; 24 h treatment; top concentration 30 μM; read-out: ABCB4 WT EC50, Emax
T2 construct: expressed in transfected cells
Procedure, shortened: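 HEK-293 cells stably expressing HiBit-tagged human ABCB4 WT, treated 24 h at 37 °C with 11-dose 3-fold dilutions, top final 30 μM in 0.3% DMSO. HiBit lytic reagent luminescence read after 1 h at 25 °C; Emax and EC50 derived.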

ABCA4 P1380L = target: T3, ABCA4 P1380L (Homo sapiens, UniProt P78363, P1380L); test: A4 correction dose-response assay: ABCA4 P1380L HiBit protein expression; settings: HEK-293 cells stably expressing HiBit-tagged ABCA4 P1380L; 24 h treatment; top concentration 30 μM; read-out: ABCA4 P1380L EC50, Emax
T3 construct: expressed in transfected cells
Procedure, shortened: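 Cells transfected with HiBit-tagged human ABCA4 P1380L cDNA were treated for 24 h at 37°C with an eleven-point dilution series (top final 30 μM, 0.3% DMSO).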

T2 sequence (P21439 whole entry): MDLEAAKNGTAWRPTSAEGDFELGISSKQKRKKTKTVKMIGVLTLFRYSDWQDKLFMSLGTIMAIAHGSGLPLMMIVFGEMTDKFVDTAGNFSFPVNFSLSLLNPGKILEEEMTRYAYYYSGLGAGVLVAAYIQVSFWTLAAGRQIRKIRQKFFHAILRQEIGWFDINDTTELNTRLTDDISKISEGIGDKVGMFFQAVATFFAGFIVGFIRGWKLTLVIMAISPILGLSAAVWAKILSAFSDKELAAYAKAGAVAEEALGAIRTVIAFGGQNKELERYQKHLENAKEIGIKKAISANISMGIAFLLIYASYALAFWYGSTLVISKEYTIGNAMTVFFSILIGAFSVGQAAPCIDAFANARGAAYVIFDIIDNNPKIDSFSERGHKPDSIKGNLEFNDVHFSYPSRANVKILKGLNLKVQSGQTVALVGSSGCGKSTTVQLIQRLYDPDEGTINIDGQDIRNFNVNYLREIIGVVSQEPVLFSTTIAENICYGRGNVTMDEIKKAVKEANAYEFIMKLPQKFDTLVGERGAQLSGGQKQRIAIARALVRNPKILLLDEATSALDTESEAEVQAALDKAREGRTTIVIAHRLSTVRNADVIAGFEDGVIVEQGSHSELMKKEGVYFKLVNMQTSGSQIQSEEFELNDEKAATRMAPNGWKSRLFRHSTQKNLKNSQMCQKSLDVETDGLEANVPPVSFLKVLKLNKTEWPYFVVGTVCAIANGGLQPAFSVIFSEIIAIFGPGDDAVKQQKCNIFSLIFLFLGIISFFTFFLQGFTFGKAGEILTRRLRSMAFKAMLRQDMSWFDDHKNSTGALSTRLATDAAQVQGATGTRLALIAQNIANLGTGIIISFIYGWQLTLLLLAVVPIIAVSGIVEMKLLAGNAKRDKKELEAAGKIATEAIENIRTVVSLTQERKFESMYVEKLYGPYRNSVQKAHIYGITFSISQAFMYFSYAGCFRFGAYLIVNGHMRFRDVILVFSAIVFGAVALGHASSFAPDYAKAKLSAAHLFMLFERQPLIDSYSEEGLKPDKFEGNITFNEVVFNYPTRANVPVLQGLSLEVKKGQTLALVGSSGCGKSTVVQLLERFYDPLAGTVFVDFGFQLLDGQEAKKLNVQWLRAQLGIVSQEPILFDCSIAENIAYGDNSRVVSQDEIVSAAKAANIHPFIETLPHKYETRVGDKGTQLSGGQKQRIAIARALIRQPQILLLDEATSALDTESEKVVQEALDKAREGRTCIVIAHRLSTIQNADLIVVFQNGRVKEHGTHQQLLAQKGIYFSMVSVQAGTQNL
T3 sequence (P78363 whole entry P1380L): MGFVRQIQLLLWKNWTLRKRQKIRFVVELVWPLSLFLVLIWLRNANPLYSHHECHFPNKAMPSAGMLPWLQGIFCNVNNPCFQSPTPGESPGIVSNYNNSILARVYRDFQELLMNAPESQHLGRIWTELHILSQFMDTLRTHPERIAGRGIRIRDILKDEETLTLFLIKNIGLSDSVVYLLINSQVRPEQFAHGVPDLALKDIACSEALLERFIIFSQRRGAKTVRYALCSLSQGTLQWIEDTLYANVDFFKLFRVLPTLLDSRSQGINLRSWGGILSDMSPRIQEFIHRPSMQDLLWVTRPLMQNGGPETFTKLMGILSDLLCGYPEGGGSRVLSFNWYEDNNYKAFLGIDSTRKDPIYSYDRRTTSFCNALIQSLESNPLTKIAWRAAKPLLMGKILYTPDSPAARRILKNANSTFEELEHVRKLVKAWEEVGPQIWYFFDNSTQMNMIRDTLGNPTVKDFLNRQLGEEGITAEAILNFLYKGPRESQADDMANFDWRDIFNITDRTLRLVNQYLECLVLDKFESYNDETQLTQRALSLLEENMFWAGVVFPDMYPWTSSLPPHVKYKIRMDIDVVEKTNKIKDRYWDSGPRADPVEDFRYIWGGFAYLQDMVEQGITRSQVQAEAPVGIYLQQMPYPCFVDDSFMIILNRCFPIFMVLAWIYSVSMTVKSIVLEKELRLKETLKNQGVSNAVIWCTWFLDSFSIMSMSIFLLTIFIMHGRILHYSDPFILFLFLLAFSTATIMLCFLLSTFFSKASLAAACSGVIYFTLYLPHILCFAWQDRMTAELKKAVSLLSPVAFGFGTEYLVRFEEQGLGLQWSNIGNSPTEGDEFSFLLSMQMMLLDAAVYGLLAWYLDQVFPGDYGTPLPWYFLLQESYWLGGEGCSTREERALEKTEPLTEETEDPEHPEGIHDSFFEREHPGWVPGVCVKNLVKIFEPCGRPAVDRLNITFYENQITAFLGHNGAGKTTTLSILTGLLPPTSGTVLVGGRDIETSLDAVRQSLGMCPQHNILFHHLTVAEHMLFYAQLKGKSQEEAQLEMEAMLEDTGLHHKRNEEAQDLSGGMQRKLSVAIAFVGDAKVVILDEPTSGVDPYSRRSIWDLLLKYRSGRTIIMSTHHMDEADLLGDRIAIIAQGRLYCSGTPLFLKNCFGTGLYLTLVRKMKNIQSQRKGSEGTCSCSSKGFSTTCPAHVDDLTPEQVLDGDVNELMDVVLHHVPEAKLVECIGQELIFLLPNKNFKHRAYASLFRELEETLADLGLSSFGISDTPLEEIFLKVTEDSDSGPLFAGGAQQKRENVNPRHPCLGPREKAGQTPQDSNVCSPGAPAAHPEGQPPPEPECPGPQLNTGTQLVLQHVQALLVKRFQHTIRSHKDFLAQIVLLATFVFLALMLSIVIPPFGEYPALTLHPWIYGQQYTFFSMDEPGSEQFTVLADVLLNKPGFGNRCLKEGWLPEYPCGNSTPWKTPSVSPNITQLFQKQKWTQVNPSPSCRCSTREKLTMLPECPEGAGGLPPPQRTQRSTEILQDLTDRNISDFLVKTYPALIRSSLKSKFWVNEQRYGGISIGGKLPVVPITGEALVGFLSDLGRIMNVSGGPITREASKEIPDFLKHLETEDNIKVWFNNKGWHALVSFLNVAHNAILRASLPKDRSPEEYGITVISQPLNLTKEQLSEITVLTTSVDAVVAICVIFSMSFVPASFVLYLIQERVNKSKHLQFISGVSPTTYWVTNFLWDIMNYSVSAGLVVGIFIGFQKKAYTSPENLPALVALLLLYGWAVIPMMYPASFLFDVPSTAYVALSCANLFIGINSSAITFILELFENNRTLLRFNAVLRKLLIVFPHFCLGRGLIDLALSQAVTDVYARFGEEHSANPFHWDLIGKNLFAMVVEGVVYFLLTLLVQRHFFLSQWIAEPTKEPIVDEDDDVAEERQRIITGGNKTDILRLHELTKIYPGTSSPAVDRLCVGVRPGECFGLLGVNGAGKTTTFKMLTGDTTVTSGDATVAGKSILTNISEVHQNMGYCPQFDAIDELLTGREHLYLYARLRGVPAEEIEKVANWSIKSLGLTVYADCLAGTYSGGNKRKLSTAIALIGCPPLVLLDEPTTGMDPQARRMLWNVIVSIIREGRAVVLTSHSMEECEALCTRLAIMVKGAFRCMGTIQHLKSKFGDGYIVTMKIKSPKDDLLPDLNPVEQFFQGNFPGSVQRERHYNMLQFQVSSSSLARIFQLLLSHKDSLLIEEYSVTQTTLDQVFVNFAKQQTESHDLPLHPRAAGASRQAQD
T1 sequence (O95255 whole entry): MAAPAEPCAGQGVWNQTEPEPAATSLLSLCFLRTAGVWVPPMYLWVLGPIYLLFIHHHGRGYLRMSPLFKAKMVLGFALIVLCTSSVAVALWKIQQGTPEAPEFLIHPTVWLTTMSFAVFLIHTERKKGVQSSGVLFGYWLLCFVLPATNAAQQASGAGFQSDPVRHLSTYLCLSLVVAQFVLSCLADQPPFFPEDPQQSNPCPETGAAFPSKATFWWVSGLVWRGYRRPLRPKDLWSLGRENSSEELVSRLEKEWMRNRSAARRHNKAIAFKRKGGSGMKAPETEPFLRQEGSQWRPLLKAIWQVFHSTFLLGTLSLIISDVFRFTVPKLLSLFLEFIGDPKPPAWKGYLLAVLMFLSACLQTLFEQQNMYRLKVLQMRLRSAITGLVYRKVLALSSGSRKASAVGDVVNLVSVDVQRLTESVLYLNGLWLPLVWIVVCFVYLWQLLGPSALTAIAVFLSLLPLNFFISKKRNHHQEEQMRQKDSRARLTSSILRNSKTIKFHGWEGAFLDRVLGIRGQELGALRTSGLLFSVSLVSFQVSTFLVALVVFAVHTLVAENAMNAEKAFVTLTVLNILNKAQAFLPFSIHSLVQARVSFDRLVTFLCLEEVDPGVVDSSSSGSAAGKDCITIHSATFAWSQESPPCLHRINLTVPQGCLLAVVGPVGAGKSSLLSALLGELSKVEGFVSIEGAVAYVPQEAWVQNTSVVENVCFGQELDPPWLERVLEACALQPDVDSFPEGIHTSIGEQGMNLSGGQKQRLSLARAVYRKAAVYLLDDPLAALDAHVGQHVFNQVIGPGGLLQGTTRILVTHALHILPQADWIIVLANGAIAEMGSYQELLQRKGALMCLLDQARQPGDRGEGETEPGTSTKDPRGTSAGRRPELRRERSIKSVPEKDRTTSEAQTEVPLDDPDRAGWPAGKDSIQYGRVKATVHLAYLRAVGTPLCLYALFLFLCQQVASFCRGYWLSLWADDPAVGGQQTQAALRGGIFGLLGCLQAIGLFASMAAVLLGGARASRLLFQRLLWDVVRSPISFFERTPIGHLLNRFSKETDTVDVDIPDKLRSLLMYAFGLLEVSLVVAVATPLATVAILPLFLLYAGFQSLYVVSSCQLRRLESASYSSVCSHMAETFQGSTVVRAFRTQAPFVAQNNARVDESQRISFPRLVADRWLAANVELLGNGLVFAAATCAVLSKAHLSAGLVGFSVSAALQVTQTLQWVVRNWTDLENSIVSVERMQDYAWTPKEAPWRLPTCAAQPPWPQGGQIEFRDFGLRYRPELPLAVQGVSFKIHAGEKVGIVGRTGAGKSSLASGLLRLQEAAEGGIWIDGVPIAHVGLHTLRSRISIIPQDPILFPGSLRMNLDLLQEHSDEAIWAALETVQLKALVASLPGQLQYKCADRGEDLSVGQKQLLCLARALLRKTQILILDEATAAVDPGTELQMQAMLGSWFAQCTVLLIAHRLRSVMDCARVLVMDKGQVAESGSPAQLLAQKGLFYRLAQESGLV

Structure (SMILES)	EC50 (ABCC6 WT)	EC50 (ABCB4 WT)	EC50 (ABCA4 P1380L)
Cc1cc(C)c(Oc2nc(-c3cncc(Cl)c3)cnc2NS(C)(=O)=O)c(C)n1 [Compound I-260]	1 to 10 µM	≥ 25 µM	> 25 µM
Cc1cc(C2CC2)nc(C)c1Oc1nc(-c2cncc(S(C)(=O)=O)c2)ccc1NS(C)(=O)=O [Compound I-263]	1 to 10 µM	1 to 10 µM	1 to 10 µM
Cc1cc(C2CC2)nc(C)c1Oc1nc(-c2cncc(C#N)c2)ccc1NS(=O)(=O)C1CC1 [Compound I-264]	≥ 25 µM	< 1 µM	< 1 µM
CNS(=O)(=O)c1ccc(-c2cncc(C#N)c2)nc1Oc1c(C)cc(C)nc1C [Compound I-265]	1 to 10 µM	< 1 µM	1 to 10 µM
Cc1cc(C)c(Oc2nc(-c3cncc(C#N)c3)ccc2NS(=O)(=O)C2CC2)c(C)n1 [Compound I-266]	< 1 µM	< 1 µM	< 1 µM
Cc1cc(C)c(Oc2nc(-c3cncc(C#N)c3)ccc2NS(=O)(=O)C2COC2)c(C)c1 [Compound I-267]	< 1 µM	< 1 µM	< 25 µM
Cc1cc(C)c(Oc2nc(-c3cncc(C#N)c3)ccc2NS(C)(=O)=O)c(C2CC2)n1 [Compound I-268]	< 1 µM	< 1 µM	< 1 µM
Cc1cc(C)c(Oc2nc(-c3ccc(C#N)nc3C)ccc2NS(C)(=O)=O)c(C)n1 [Compound I-269]	1 to 10 µM	< 1 µM	1 to 10 µM
Cc1cc(C)c(Oc2nc(-c3cc(C#N)cnc3C)ccc2NS(C)(=O)=O)c(C)n1 [Compound I-270]	1 to 10 µM	< 25 µM	< 25 µM
Cc1cc(C2CC2)cc(C)c1Oc1nc(-c2cncc(C#N)c2)ccc1NS(C)(=O)=O [Compound I-271]	< 1 µM	1 to 10 µM	< 1 µM
Cc1cc(C)c(Oc2nc(-n3cnc(C#N)c3)ccc2N(C)S(C)(=O)=O)c(C)c1 [Compound I-272]	1 to 10 µM	< 25 µM	1 to 10 µM
Cc1cc(C)c(Oc2nc(-n3cnc(C#N)c3)ccc2NS(C)(=O)=O)c(C)c1 [Compound I-273]	< 1 µM	< 25 µM	< 25 µM
Cc1cc(C)c(Oc2nc(-n3cc(C#N)cn3)ccc2NS(C)(=O)=O)c(C)c1 [Compound I-274]	< 1 µM	< 25 µM	< 1 µM
Cc1cc(C)c(Oc2nc(-c3cncc(C#N)c3)cnc2NS(C)(=O)=O)c(C)c1 [Compound I-275]	< 1 µM	≥ 25 µM	< 25 µM
Cc1cc(C)c(Oc2nc(-c3cncc(C#N)c3)ccc2NS(=O)(=O)C(C)C)c(C)n1 [Compound I-276]	< 1 µM	< 1 µM	< 1 µM
Cc1cc(C)c(Oc2nc(-c3cncc(Cl)c3)cnc2NS(C)(=O)=O)c(C)c1 [Compound I-277]	< 1 µM	≥ 25 µM	< 25 µM

Structure (SMILES)	EC50 (ABCC6 WT)	EC50 (ABCB4 WT)	EC50 (ABCA4 P1380L)
Cc1cc(C)c(Oc2nc(-c3cncc(S(C)(=O)=O)c3)ccc2NS(C)(=O)=O)c(C)c1 [Compound I-278]	1 to 10 µM	≥ 25 µM	1 to 10 µM
Cc1cc(C)c(Oc2nc(-c3cncc(C#N)c3)ccc2S(C)(=N)=O)c(C)c1 (stereo not drawn) [Compound I-279]	< 1 µM	< 1 µM	< 1 µM
Cc1cc(C)c(Oc2nc(-c3cncc(C#N)c3)ccc2S(N)(=O)=O)c(C)c1 [Compound I-280]	< 1 µM	< 1 µM	< 1 µM
CNS(=O)(=O)c1ccc(-c2cncc(C#N)c2)nc1Oc1c(C)cc(C)cc1C [Compound I-281]	< 1 µM	< 1 µM	< 1 µM
Cc1cc(C)c(Oc2nc(-c3cc(Cl)cnc3C)ccc2NS(C)(=O)=O)c(C)n1 [Compound I-282]	1 to 10 µM	≥ 25 µM	> 25 µM
Cc1cc(C)c(Oc2nc(-c3cn(C)nc3C)ccc2NS(C)(=O)=O)c(C)c1 [Compound I-283]	< 1 µM	< 1 µM	< 1 µM
Cc1cc(C)c(Oc2nc(-c3cncc(C#N)c3)ncc2NS(C)(=O)=O)c(C)n1 [Compound I-284]	< 1 µM	< 1 µM	< 25 µM
Cc1cc(C)c(Oc2nc(N3CCN(C(=O)C4CC4)CC3)ccc2S(N)(=O)=O)c(C)c1 [Compound I-285]	1 to 10 µM	≥ 25 µM	> 25 µM
Cc1cc(C2CC2)nc(C2CC2)c1Oc1nc(-c2cncc(C#N)c2)ccc1S(=N)(=O)C1CC1 (stereo not drawn) [Compound I-317]	< 1 µM	< 1 µM	> 25 µM
Cc1cc(C(F)F)cc(C2CC2)c1Oc1nc(-c2cncc(C#N)c2)ccc1S(=N)(=O)C1CC1 (stereo not drawn) [Compound I-319]	< 1 µM	1 to 10 µM	> 25 µM
Cc1cc(C(F)F)nc(C2CC2)c1Oc1nc(-c2cncc(C#N)c2)ccc1S(=O)(=O)NC1CCOCC1 [Compound I-320]	1 to 10 µM	< 25 µM	< 25 µM
Cc1cc(C(F)F)nc(C2CC2)c1Oc1nc(-c2cncc(C#N)c2)ccc1S(=O)(=O)NC1COC1 [Compound I-321]	1 to 10 µM	1 to 10 µM	< 25 µM
Cc1cc(C2CC2)nc(C2CC2)c1Oc1nc(-c2cncc(C#N)c2)ccc1S(=O)(=O)NC1CCOCC1 [Compound I-322]	1 to 10 µM	< 25 µM	1 to 10 µM
Cc1cc(C)c(Oc2[nH]c(-c3cncc(C#N)c3)cc(=O)c2NS(C)(=O)=O)c(C)n1 [Compound I-325]	≥ 25 µM	< 25 µM	1 to 10 µM
Cc1cc(C)c(Oc2nc(-c3cc(C#N)c[nH]c3=O)ccc2NS(C)(=O)=O)c(C)n1 [Compound I-326]	1 to 10 µM	< 25 µM	< 1 µM
Cc1cc(C)c(Oc2nc(-c3cncc(C#N)c3)c(O)cc2NS(C)(=O)=O)c(C)n1 [Compound I-327]	< 1 µM	< 1 µM	< 1 µM
